Values joined by “and” are separate entries in the source; they are usually repeats but may differ in a detail not shown here. Equal values may be shown once.
Target: T1, fluorescein-streptavidin (Streptomyces avidinii, UniProt P22629)
T1 construct: purchased Calbiochem-Novabiochem Corp., La Jolla, Calif; 189734
Test: Standard protein-binding assay: fluorescein-streptavidin binding to linker on streptavidin-coated 96-well plates
From the text: Referring to the drawings, and particularly to FIG. 1, generic reactions illustrating two variations of the screening system of the present invention are shown. FIGS. 1a-1d illustrate the generic System 1 reaction wherein a compound comprised of a tether connecting biotin with a chemical compound containing a nitrophenyl group is applied to a streptavidin coated solid phase. The amount of fluorescein-protein complex (c), where the exemplary protein is fluorescein-anti-DNP antibody, bound to the biotin-tether-nitrophenyl complex is characterized by detecting the magnitude of fluorescence emission in each individual well at the completion of the reaction. Similarly, FIG. 1e-1h illustrates the generic System 2 reaction wherein a tether connects 2 biotin groups together and streptavidin is coated on the solid phase. As in the System 1 reaction, the amount of fluorescein-protein complex (g), where the exemplary protein is fluorescein-streptavidin, bound to the biotin-tether-biotin complex is characterized through the detection of fluorescence emissions in each individual well at the completion of the reaction.
In the quantification of the interaction between fluoresceinated-proteins and linkers is characterized by detecting the magnitude of fluorescence emissions in each individual well at the completion of standard protein-binding assay procedures.
A standard protein-binding assay comprises a multi-step process in which strepeavidin pre-treated 96-well plates are exposed to a solution containing linker followed by exposure to a solution containing fluorescein-labeled protein. The 96-well plates are coated with a commercially available streptavidin solution (cat #BPS00100; Xenopore Corp., Hawthorne, N.J.) and then pre-incubated with 300 μl PBS buffer for 10 minutes at room temperature. To complete the pre-incubation process, the PBS buffer is discarded and the plates are further washed five times with water. Once the plate is sufficiently washed, add to the wells 100 μl of pre-mixed binding buffer containing the desired linker, the preparation of which is as described above. After addition of the linker solution, the plate is incubated at 37° C. for one hour. Upon completion of incubation, the linker solution is discarded and the plate is washed with five changes of water. For the fifth step of the assay process, 100 μl of a premixed reaction solution containing 1 M Tris, 0.5 M NaCl and the fluorescein-labeled proteins are added to selected wells of the plate with bound linker. The fluorescein conjugated proteins, anti-dinitrophenyl antibody (rabbit IgG fraction, cat #A-6423) (anti-DNP) and streptavidin (cat #189734) are commercially available from Molecular Probes, Inc., Eugene, Oreg. and Calbiochem Inc., San Diego, Calif. Upon addition of the protein solutions, the plate is further incubated at 37° C. for one hour. Following the incubation period, the reacting solution in each well is discarded and the wells are washed with five changes of 1 M Tris or 30 changes of water. After this final washing step, 250 μl of elution buffer containing 0.5 mM NaOH, methanol and 20 mM EDTA is added to each well and the plate is read using a Spectra MAX Gemini fluorescein plate reader (Molecular Devices Corp., Sunnyvale, Calif.).
Using the standard protein-binding assay described above, linkers 1-7 are evaluated for their ability to bind fluorescein-streptavidin or fluorescein-anti-DNP. The detection of fluorescence emission beyond that of the control would indicate that the fluorescein labeled protein has bound to the corresponding linker. Lack of fluorescence emission would indicate that either the linker or the fluorescein-bound proteins are absent, or that an improper linker was used. This may be interpreted as meaning that the protein of interest, in this exemplary example streptavidin or anti-DNP, “recognizes” the particular library compound being used in the experiment. […]

[1] = Table 5, linker 3 50 nmol, streptavidin-fluorescein 100 pmol
[2] = [Linker] 3 2.5 nmol, fluorescein-streptavidin 100 pmol
[3] = [Linker] 3 5.0 nmol, fluorescein-streptavidin 100 pmol
[4] = [Linker] 3 25.0 nmol, fluorescein-streptavidin 100 pmol
[5] = [Linker] 3 50.0 nmol, fluorescein-streptavidin 100 pmol
[6] = [Linker] 3 250.0 nmol, fluorescein-streptavidin 100 pmol
[7] = [Linker] 3 500.0 nmol, fluorescein-streptavidin 100 pmol
[8] = [Linker] 3 2500.0 nmol, fluorescein-streptavidin 100 pmol
[9] = [Linker] 3 5000.0 nmol, fluorescein-streptavidin 100 pmol
[10] = linker 3 50 nmol, [STREP] 0 pmol (linker only)
[11] = linker 3 50 nmol, [STREP] 0.15 pmol
[12] = linker 3 50 nmol, [STREP] 0.3 pmol
[13] = linker 3 50 nmol, [STREP] 1.0 pmol
[14] = linker 3 50 nmol, [STREP] 3.0 pmol
[15] = linker 3 50 nmol, [STREP] 15.0 pmol
[16] = linker 3 50 nmol, [STREP] 30.0 pmol
[17] = linker 3 50 nmol, [STREP] 45.0 pmol
[18] = linker 3 50 nmol, [STREP] 60.0 pmol

T1 sequence (P22629 25-183): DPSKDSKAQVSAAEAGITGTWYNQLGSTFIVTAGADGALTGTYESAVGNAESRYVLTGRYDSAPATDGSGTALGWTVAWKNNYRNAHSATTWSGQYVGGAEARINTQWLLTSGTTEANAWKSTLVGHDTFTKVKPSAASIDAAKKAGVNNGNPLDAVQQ

SMILES: O=C(CCCCCNC(=O)CCCCCNC(=O)CCCCC1SCC2NC(=O)NC21)NCCCCCNC(=O)CCCCCNC(=O)CCCCC1SCC2NC(=O)NC21 (stereo not drawn) [Linker 3]
- Increase in fluorescence emission (100-fold increase in linker 3 concentration (0.5 nmol to 50 nmol)): no significant increase
- Increase in fluorescence emission (100-fold increase in linker concentration at much higher concentrations of linker 3): 2 fold
- Fluorescence emission, mean of Columns 1-3 [1]: 479.29
- Fluorescence emission, sum of Columns 1-2 [1]: 987.05
- Fluorescence emission, sum of Columns 1-3 [1]: 1437.9
- Fluorescence emission (Table 5, linker 3 50 nmol, streptavidin-fluorescein 100 pmol, replicates): 492.22 and 494.83 and 450.81
- Detected fluorescence emission (Well #1, linker 3 50 nmol, streptavidin-fluorescein 100 pmol): about 500
- Fluorescence emission, mean of Columns 1-3 [2]: 181.30
- Fluorescence emission, sum of Columns 1-2 [2]: 406.14
- Fluorescence emission, sum of Columns 1-3 [2]: 543.91
- Fluorescence emission ([Linker] 3 2.5 nmol, fluorescein-streptavidin 100 pmol, replicates): 230.68 and 175.46 and 137.77
- Fluorescence emission, mean of Columns 1-3 [3]: 193.80
- Fluorescence emission, sum of Columns 1-2 [3]: 467.1
- Fluorescence emission, sum of Columns 1-3 [3]: 581.41
- Fluorescence emission ([Linker] 3 5.0 nmol, fluorescein-streptavidin 100 pmol, replicates): 239.14 and 227.96 and 114.31
- Fluorescence emission, mean of Columns 1-3 [4]: 211.91
- Fluorescence emission, sum of Columns 1-2 [4]: 469.52
- Fluorescence emission, sum of Columns 1-3 [4]: 635.73
- Fluorescence emission ([Linker] 3 25.0 nmol, fluorescein-streptavidin 100 pmol, replicates): 223.84 and 245.68 and 166.21
- Fluorescence emission, mean of Columns 1-3 [5]: 280.99
- Fluorescence emission, sum of Columns 1-2 [5]: 502.51
- Fluorescence emission, sum of Columns 1-3 [5]: 782.96
- Fluorescence emission ([Linker] 3 50.0 nmol, fluorescein-streptavidin 100 pmol, replicates): 226.70 and 275.81 and 280.45
- Fluorescence emission, mean of Columns 1-3 [6]: 313.49
- Fluorescence emission, sum of Columns 1-2 [6]: 597.65
- Fluorescence emission, sum of Columns 1-3 [6]: 940.47
- Fluorescence emission ([Linker] 3 250.0 nmol, fluorescein-streptavidin 100 pmol, replicates): 261.21 and 336.44 and 342.82
- Fluorescence emission, mean of Columns 1-3 [7]: 352.86
- Fluorescence emission, sum of Columns 1-2 [7]: 703.68
- Fluorescence emission, sum of Columns 1-3 [7]: 1058.6
- Fluorescence emission ([Linker] 3 500.0 nmol, fluorescein-streptavidin 100 pmol, replicates): 325.94 and 377.74 and 354.91
- Fluorescence emission, mean of Columns 1-3 [8]: 457.81
- Fluorescence emission, sum of Columns 1-2 [8]: 920.68
- Fluorescence emission, sum of Columns 1-3 [8]: 1373.4
- Fluorescence emission ([Linker] 3 2500.0 nmol, fluorescein-streptavidin 100 pmol, replicates): 474.19 and 446.49 and 452.76
- Fluorescence emission, mean of Columns 1-3 [9]: 440.22
- Fluorescence emission, sum of Columns 1-2 [9]: 883.57
- Fluorescence emission, sum of Columns 1-3 [9]: 1320.7
- Fluorescence emission ([Linker] 3 5000.0 nmol, fluorescein-streptavidin 100 pmol, replicates): 447.77 and 435.80 and 437.09
- Effect on binding capacity of fluorescein-streptavidin (generic System 2): significantly enhances the binding capacity
- Fluorescence emission (linker 3 0.5 nmol, fluorescein-streptavidin 100 pmol): 239.14
- Fluorescence emission, mean of Columns 1-3 [10]: 150.00 and 142.49
- Fluorescence emission, sum of Columns 1-2 [10]: 311.12 and 280.3
- Fluorescence emission, sum of Columns 1-3 [10]: 450.01 and 427.46
- Fluorescence emission (linker 3 50 nmol, [STREP] 0 pmol (linker only), replicates): 158.28 and 152.84 and 138.89 and 156.28 and 124.02 and 147.16
- Fluorescence emission, mean of Columns 1-3 [11]: 147.68
- Fluorescence emission, sum of Columns 1-2 [11]: 276.44
- Fluorescence emission, sum of Columns 1-3 [11]: 443.03
- Fluorescence emission (linker 3 50 nmol, [STREP] 0.15 pmol, replicates): 110.75 and 110.57 and 165.87 and 166.59
- Fluorescence emission, mean of Columns 1-3 [12]: 129.73
- Fluorescence emission, sum of Columns 1-2 [12]: 226.97
- Fluorescence emission, sum of Columns 1-3 [12]: 389.19
- Fluorescence emission (linker 3 50 nmol, [STREP] 0.3 pmol, replicates): 72.275 and 154.69 and 162.22
- Fluorescence emission, mean of Columns 1-3 [13]: 197.16
- Fluorescence emission, sum of Columns 1-2 [13]: 389.28
- Fluorescence emission, sum of Columns 1-3 [13]: 591.47
- Fluorescence emission (linker 3 50 nmol, [STREP] 1.0 pmol, replicates): 167.36 and 221.92 and 202.19
- Fluorescence emission, mean of Columns 1-3 [14]: 253.59
- Fluorescence emission, sum of Columns 1-2 [14]: 542.04
- Fluorescence emission, sum of Columns 1-3 [14]: 760.78
- Fluorescence emission (linker 3 50 nmol, [STREP] 3.0 pmol, replicates): 237.61 and 304.43 and 218.74
- Fluorescence emission, mean of Columns 1-3 [15]: 257.02
- Fluorescence emission, sum of Columns 1-2 [15]: 482.28
- Fluorescence emission, sum of Columns 1-3 [15]: 771.07
- Fluorescence emission (linker 3 50 nmol, [STREP] 15.0 pmol, replicates): 220.15 and 262.13 and 288.79
- Fluorescence emission, mean of Columns 1-3 [16]: 326.19
- Fluorescence emission, sum of Columns 1-2 [16]: 601.80
- Fluorescence emission, sum of Columns 1-3 [16]: 978.58
- Fluorescence emission (linker 3 50 nmol, [STREP] 30.0 pmol, replicates): 395.67 and 206.13 and 376.78
- Fluorescence emission, mean of Columns 1-3 [17]: 474.38
- Fluorescence emission, sum of Columns 1-2 [17]: 994.49
- Fluorescence emission, sum of Columns 1-3 [17]: 1423.2
- Fluorescence emission (linker 3 50 nmol, [STREP] 45.0 pmol, replicates): 454.46 and 540.03 and 428.66
- Fluorescence emission, mean of Columns 1-3 [18]: 463.43
- Fluorescence emission, sum of Columns 1-2 [18]: 959.13
- Fluorescence emission, sum of Columns 1-3 [18]: 1390.3
- Fluorescence emission (linker 3 50 nmol, [STREP] 60.0 pmol, replicates): 548.75 and 410.38 and 431.15
- Increase in fluorescence emission (linker 3, 100-fold increase in fluorescein-streptavidin concentration (0.15 to 15 pm)): 2 fold

— patent US20020068367A1, “Linker and method for solid phase combinatorial synthesis” (priority 2000, published 2002)
